# Data: patent US9701663B2, “Sulfonamide retinoic acid receptor-related orphan receptor modulators and uses thereof” (INNOV17 LLC, priority 2014, dated 2017)
# Tests used:
# Assay type in all cases: cell-based
# Details in all cases: 72 h; human CD4+ T cells under TH17-polarizing conditions, 3 days; supernatant ELISA
# [1] = system: IL-17F; assay: Human TH17 cytokine inhibition measured by ELISA: IL-17F
# Method: (§1) Human TH17 Cytokine Inhibition as Measured by ELISA
# (§2) Peripheral blood mononuclear cells (PBMCs) were sourced from freshly prepared leukocyte enriched plasma (buffy coat) from healthy donors (New York Blood Center). PBMCs were isolated by density gradient centrifugation using Ficoll-Paque™ PLUS (GE Healthcare). Human CD4+ T cells were seeded into 96-well plates (5×10^4 cells/well) and activated with plate-bound anti-human (h)-CD3 antibody and soluble h-aCD28 (both at 1 ug/ml; eBioscience) and differentiated into TH17 cells with 20 ng/mL h-IL-6, 5 ng/mL h-TGF-β1, 10 ng/mL h-IL-23 (eBioscience) and 10 ng/mL IL-1 β (Miltenyi Biotec) in serum-free TexMACS Medium (Miltenyi Biotec) supplemented with 1% Penicillin/Streptomycin (Lonza) for 3 days. CD4+ T cells propagated under TH17-polarizing conditions were cultured in the presence or absence of various concentrations of compounds with a final concentration of 0.1% DMSO. Supernatants were collected and stored at −20° C. until assayed for IL-17A, IL-17F and IL-21 levels by “Ready-Set-Go” ELISA kits (eBioscience) as per manufacturer's instructions. Endpoint absorbance was read at 450 nm using a microplate reader (Perkin Elmer).
# [2] = system: IL-17A; assay: Human TH17 cytokine inhibition measured by ELISA: IL-17A
# Method: as §1, §2
# [3] = system: IL-21; assay: Human TH17 cytokine inhibition measured by ELISA: IL-21
# Method: as §1, §2
# [4] = system: IL-22; assay: Human TH17 cytokine inhibition measured by ELISA: IL-22
Structure (SMILES),IC50 [1] [µM],IC50 [2] [µM],IC50 [3] [µM],IC50 [4] [µM]
"O=S(=O)(CC(F)(F)F)N1CCC(Cn2ccc3cc(-c4cn[nH]c4)ccc32)CC1 [Example 8, 5-(1H-pyrazol-4-yl)-1-((1-((2,2,2-trifluoroethyl)sulfonyl)piper-idin-4-yl)methyl)-1H-indole]",> 10,> 10,> 10,
"CC1(C)CC(Cn2ccc3cc(-c4cn[nH]c4)ccc32)CN1S(=O)(=O)c1ccccc1 (stereo not shown) [Example 29, 1-((5,5-dimethyl-1-(phenylsulfonyl)pyrrolidin-3-yl)methyl)-5-(1H-pyrazol-4-yl)-1H-indole]",< 10,< 10,< 10,
"O=S(=O)(c1ccc(Cl)cc1)N1CCC(Cn2ccc3cc(-c4cn[nH]c4)ccc32)CC1 [Example 36, 1-((1-(4-chlorophenylsulfonyl)piperidin-4-yl)methyl)-5-(1H-pyrazol-4-yl)-1H-indole]",< 10,< 10,< 10,< 10
"O=S(=O)(c1cccnc1)N1CCC(Cn2ccc3cc(-c4cn[nH]c4)ccc32)CC1 [Example 38, 5-(1H-pyrazol-4-yl)-1-((1-(pyridin-3-ylsulfonyl)piperidin-4-yl)methyl)-1H-indole]",< 10,< 10,< 10,< 10
"O=S(=O)(c1ccccc1F)N1CCC(Cn2ccc3cc(-c4cn[nH]c4)ccc32)CC1 [Example 40, 1-((1-(2-fluorophenylsulfonyl)piperidin-4-yl)methyl)-5-(1H-pyrazol-4-yl)-1H-indole]",< 10,< 10,< 10,< 10
"CS(=O)(=O)N1CCC(Cn2ccc3cc(-c4cn[nH]c4)ccc32)CC1 [Example 50, 1-((1-(methylsulfonyl)piperidin-4-yl)methyl)-5-(1H-pyrazol-4-yl)-1H-indole]",> 10,> 10,> 10,> 10

# The remaining lines, values ahead:
IC50 [1] [µM],IC50 [2] [µM],IC50 [3] [µM],IC50 [4] [µM],Structure (SMILES)
< 10,< 10,< 10,,"C[C@@H]1C[C@H](Cn2ccc3cc(-c4cn[nH]c4)ccc32)CN1S(=O)(=O)c1ccccc1 (racemic) [Example 47, rac.-cis-1-((-5-methyl-1-(phenylsulfonyl)pyrrolidin-3-yl)methyl)-5-(1H-pyrazol-4-yl)-1H-indole]"
< 10,< 10,< 10,,"C[C@H]1C[C@H](Cn2ccc3cc(-c4cn[nH]c4)ccc32)CN1S(=O)(=O)c1ccccc1 (racemic) [Example 48, rac.-trans-1-((-5-methyl-1-(phenylsulfonyl)pyrrolidin-3-yl)methyl)-5-(1H-pyrazol-4-yl)-1H-indole]"
< 10,< 10,< 10,,"O=S(=O)(c1ccccc1)N1CCC(Cn2ccc3cc(-c4cn[nH]c4)ccc32)CC1 [Example 5, 1-((1-(phenylsulfonyl)piperidin-4-yl)methyl)-5-(1H-pyrazol-4-yl)-1H-indole]"
< 10,< 10,> 10,,"O=S(=O)(Cc1ccccc1)N1CCC(Cn2ccc3cc(-c4cn[nH]c4)ccc32)CC1 [Example 6, 1-((1-(benzylsulfonyl)piperidin-4-yl)methyl)-5-(1H-pyrazol-4-yl)-1H-indole]"
< 10,< 10,< 10,,"O=S(=O)(CCc1ccccc1)N1CCC(Cn2ccc3cc(-c4cn[nH]c4)ccc32)CC1 [Example 7, 1-((1-(phenethylsulfonyl)piperidin-4-yl)methyl)-5-(1H-pyrazol-4-yl)-1H-indole]"
